# Source: patent publication US20250115591A1, “NOVEL SULFONAMIDE CARBOXAMIDE COMPOUNDS” (INFLAZOME LIMITED, priority 2017, published 2025)
# Where a name gives a salt, the structure may show the parent alone.
# Molecular target: NLRP3 (Homo sapiens (Human), UniProt Q96P20)
# Test: THP-1 cells pyroptosis assay (LPS + nigericin, resazurin read-out)
# Type: cell-based
# Conditions: 1 μg/ml LPS, 5 μM nigericin
# Experimental: THP-1 cells (ATCC #TIB-202) were grown in RPMI containing L-glutamine (Gibco 15 #11835) supplemented with 1 mM sodium pyruvate (Sigma #S8636) and penicillin (100 units/ml)/streptomycin (0.1 mg/ml) (Sigma #P4333) in 10% Fetal Bovine Serum (FBS) (Sigma #F0804). The cells were routinely passaged and grown to confluency (˜10^6 cells/ml). On the day of the experiment, THP-1 cells were harvested and resuspended into RPMI medium (without FBS). The cells were then counted and viability (>90%) checked by Trypan blue (Sigma #T8154). Appropriate dilutions were made to give a concentration of 625,000 cells/ml. To this diluted cell solution was added LPS (Sigma #[4524) to give a 1 μg/ml Final Assay Concentration (FAC). 40μ of the final preparation was aliquoted into each well of a 96-well plate. The plate thus prepared was used for compound screening.
# The following method step-by-step assay was followed for compound screening. • 1. Seed THP-1 cells (25,000 cells/well) containing 1.0 μg/ml LPS in 40μ of RPMI medium (without FBS) in 96-well, black walled, clear bottom cell culture plates coated with poly-D-lysine (VWR #734-0317) • 2. Add 5 μl compound (8 points half-log dilution, with […]) or vehicle (DMSO 0.1% FAC) to the appropriate wells • 3. Incubate for 3 hrs at 37° C. and 5% CO2 • 4. Add 5 μl nigericin (Sigma #N7143) (FAC 5 μM) to all wells • 5. Incubate for 1 hr at 37° C. and 5% CO2 • 6. At the end of the incubation period, spin plates at 300×g for 3 mins and remove supernatant • 7. Then add 50 μl of resazurin (Sigma #R7017) (FAC 100 μM resazurin in RPMI medium without FBS) and incubate plates for a further 1-2 hrs at 37° C. and 5% CO2 • 8. Plates were read in an Envision reader at Ex 560 nm and Em 590 nm • 9. IC50 data is fitted to a non-linear regression equation (log inhibitor vs response-variable slope 4-parameters)
# Sequence of NLRP3 (Q96P20 whole entry): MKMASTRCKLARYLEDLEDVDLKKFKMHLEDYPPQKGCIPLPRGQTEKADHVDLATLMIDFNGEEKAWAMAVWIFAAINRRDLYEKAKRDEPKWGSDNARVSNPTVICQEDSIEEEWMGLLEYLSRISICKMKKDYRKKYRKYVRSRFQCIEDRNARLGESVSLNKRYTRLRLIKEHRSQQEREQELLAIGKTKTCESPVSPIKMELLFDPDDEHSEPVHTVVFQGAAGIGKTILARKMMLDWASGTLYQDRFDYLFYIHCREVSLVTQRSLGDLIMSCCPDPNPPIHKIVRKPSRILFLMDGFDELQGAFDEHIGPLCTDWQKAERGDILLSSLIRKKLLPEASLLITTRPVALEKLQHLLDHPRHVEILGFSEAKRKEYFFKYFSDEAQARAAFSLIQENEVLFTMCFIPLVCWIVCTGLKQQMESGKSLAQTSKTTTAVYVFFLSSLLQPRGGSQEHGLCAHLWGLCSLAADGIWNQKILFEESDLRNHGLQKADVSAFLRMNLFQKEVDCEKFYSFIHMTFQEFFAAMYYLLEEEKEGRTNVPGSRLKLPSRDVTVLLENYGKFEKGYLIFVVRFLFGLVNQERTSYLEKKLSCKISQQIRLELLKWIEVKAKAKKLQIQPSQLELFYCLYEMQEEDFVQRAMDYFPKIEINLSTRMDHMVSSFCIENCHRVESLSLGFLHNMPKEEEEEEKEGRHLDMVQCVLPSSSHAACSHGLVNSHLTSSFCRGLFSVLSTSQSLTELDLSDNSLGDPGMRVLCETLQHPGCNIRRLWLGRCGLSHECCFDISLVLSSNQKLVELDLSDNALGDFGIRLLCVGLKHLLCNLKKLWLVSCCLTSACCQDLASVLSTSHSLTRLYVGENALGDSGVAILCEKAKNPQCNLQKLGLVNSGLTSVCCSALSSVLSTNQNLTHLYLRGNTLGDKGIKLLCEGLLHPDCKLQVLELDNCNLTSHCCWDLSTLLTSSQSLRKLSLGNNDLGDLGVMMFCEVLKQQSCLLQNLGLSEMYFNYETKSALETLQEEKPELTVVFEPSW
row,Structure (SMILES),IC50 [nM]
1,"O=C(Nc1c2c(cc3c1CCC3)CCC2)NS(=O)(=O)C1CN(C2CS(=O)(=O)C2)C1 [Example 120, 1-(1,1-Dioxidothietan-3-yl)-N-((1,2,3,5,6,7-hexahydro-s-indacen-4-yl)carbamoyl)azetidine-3-sulfonamide, potassium salt]",1000 to 10000
2,"CC(C)C(=O)N1CCC(S(=O)(=O)NC(=O)Nc2c3c(cc4c2CCC4)CCC3)CC1 [Example 11, N-((1,2,3,5,6,7-Hexahydro-s-indacen-4-yl)carbamoyl)-1-isobutyrylpiperidine-4-sulfonamide, potassium salt]",1000 to 10000
3,"N#CCN1CCCC(S(=O)(=O)NC(=O)Nc2c3c(cc4c2CCC4)CCC3)C1 (stereo not shown) [Example 58, 1-(Cyanomethyl)-N-((1,2,3,5,6,7-hexahydro-s-indacen-4-yl)carbamoyl)piperidine-3-sulfonamide, potassium salt]",1000 to 10000
4,"CSCCN1CC(S(=O)(=O)NC(=O)Nc2c3c(cc4c2CCC4)CCC3)C1 [Example 107, N-((1,2,3,5,6,7-Hexahydro-s-indacen-4-yl)carbamoyl)-1-(2-(methylthio)ethyl)azetidine-3-sulfonamide, potassium salt]",< 1000
5,"CCN1CC(S(=O)(=O)NC(=O)Nc2c3c(cc4c2CCC4)CCC3)CC1=O (stereo not shown) [Example 147, 1-Ethyl-N-((1,2,3,5,6,7-hexahydro-s-indacen-4-yl)carbamoyl)-5-oxopyrrolidine-3-sulfonamide, potassium salt]",1000 to 10000
6,"O=C(Nc1c2c(cc3c1CCC3)CCC2)NS(=O)(=O)C1CN(C2COC2)C1 [Example 116, N-((1,2,3,5,6,7-Hexahydro-s-indacen-4-yl)carbamoyl)-1-(oxetan-3-yl)azetidine-3-sulfonamide, potassium salt]",1000 to 10000
7,"O=C(Nc1c2c(cc3c1CCC3)CCC2)NS(=O)(=O)C1CN(CC2CCCCC2)C1 [Example 89, 1-(Cyclohexylmethyl)-N-((1,2,3,5,6,7-hexahydro-s-indacen-4-yl)carbamoyl)azetidine-3-sulfonamide, potassium salt]",1000 to 10000
8,"CN(C)CCN1CC(S(=O)(=O)NC(=O)Nc2c3c(cc4c2CCC4)CCC3)C1 [Example 102, 1-(2-(Dimethylamino)ethyl)-N-((1,2,3,5,6,7-hexahydro-s-indacen-4-yl)carbamoyl)azetidine-3-sulfonamide, potassium salt]",1000 to 10000
9,"CC(C)n1ccc(S(=O)(=O)NC(=O)Nc2c3c(cc4c2CCC4)CCC3)cc1=O [Example 180, N-((1,2,3,5,6,7-Hexahydro-s-indacen-4-yl)carbamoyl)-1-isopropyl-2-oxo-1,2-dihydropyridine-4-sulfonamide, sodium salt]",1000 to 10000
10,"COc1cc(-c2ccc3c(c2NC(=O)NS(=O)(=O)c2ccn(C(C)C)c(=O)c2)CCC3)ccn1 [Example 179, 1-Isopropyl-N-((5-(2-methoxypyridin-4-yl)-2,3-dihydro-1H-inden-4-yl)carbamoyl)-2-oxo-1,2-dihydropyridine-4-sulfonamide, sodium salt]",< 1000
11,"CN1CC(N2CC(S(=O)(=O)NC(=O)Nc3c4c(cc5c3CCC5)CCC4)C2)C1 [Example 110, N-((1,2,3,5,6,7-Hexahydro-s-indacen-4-yl)carbamoyl)-1′-methyl-[1,3′-biazetidine]-3-sulfonamide, potassium salt]",1000 to 10000
12,"CN(C)C(=O)N1CCC(S(=O)(=O)NC(=O)Nc2c3c(cc4c2CCC4)CCC3)CC1 [Example 61, 4-(N-((1,2,3,5,6,7-Hexahydro-s-indacen-4-yl)carbamoyl)sulfamoyl)-N,N-dimethylpiperidine-1-carboxamide]",1000 to 10000
13,"Cn1ccnc1CN1CC(S(=O)(=O)NC(=O)Nc2c3c(cc4c2CCC4)CCC3)C1 [Example 123, N-((1,2,3,5,6,7-Hexahydro-s-indacen-4-yl)carbamoyl)-1-((1-methyl-1H-imidazol-2-yl)methyl)azetidine-3-sulfonamide, potassium salt]",1000 to 10000
14,"CN1CC2(CC(S(=O)(=O)NC(=O)Nc3c4c(cc5c3CCC5)CCC4)C2)C1 [Example 64, N-((1,2,3,5,6,7-Hexahydro-s-indacen-4-yl)carbamoyl)-2-methyl-2-azaspiro[3.3]heptane-6-sulfonamide, potassium salt]",1000 to 10000
15,"CC1(CCN2CC(S(=O)(=O)NC(=O)Nc3c4c(cc5c3CCC5)CCC4)C2)N=N1 [Example 139, N-((1,2,3,5,6,7-Hexahydro-s-indacen-4-yl)carbamoyl)-1-(2-(3-methyl-3H-diazirin-3-yl)ethyl)azetidine-3-sulfonamide, potassium salt]",1000 to 10000
16,"O=C(Nc1c2c(cc3c1CCC3)CCC2)NS(=O)(=O)C1CCN(CCF)CC1 [Example 22, 1-(2-Fluoroethyl)-N-((1,2,3,5,6,7-hexahydro-s-indacen-4-yl)carbamoyl)piperidine-4-sulfonamide, potassium salt]",1000 to 10000
17,"CS(=O)(=O)N1CCC(S(=O)(=O)NC(=O)Nc2c3c(cc4c2CCC4)CCC3)CC1 [Example 29, N-((1,2,3,5,6,7-Hexahydro-s-indacen-4-yl)carbamoyl)-1-(methylsulfonyl)piperidine-4-sulfonamide, potassium salt]",1000 to 10000
18,"O=C(Nc1c2c(cc3c1CCC3)CCC2)NS(=O)(=O)C1CCCN(CC2CC2)C1 (stereo not shown) [Example 57, 1-(Cyclopropylmethyl)-N-((1,2,3,5,6,7-hexahydro-s-indacen-4-yl)carbamoyl)piperidine-3-sulfonamide, potassium salt]",1000 to 10000
19,"CC1CC(N2CC(S(=O)(=O)NC(=O)Nc3c4c(cc5c3CCC5)CCC4)C2)C1 (stereo not shown) [Example 118, N-((1,2,3,5,6,7-Hexahydro-s-indacen-4-yl)carbamoyl)-1-(3-methylcyclobutyl)azetidine-3-sulfonamide, potassium salt]",< 1000
20,"CC(C)N1CC(N2CCC(S(=O)(=O)NC(=O)Nc3c4c(cc5c3CCC5)CCC4)C2)C1 (stereo not shown) [Example 51, N-((1,2,3,5,6,7-Hexahydro-s-indacen-4-yl)carbamoyl)-1-(1-isopropylazetidin-3-yl)pyrrolidine-3-sulfonamide, potassium salt]",1000 to 10000
21,"CC(C)N1CCC(S(=O)(=O)NC(=O)Nc2c3c(cc4c2CCC4)CCC3)CC1 [Example 47, N-((1,2,3,5,6,7-Hexahydro-s-indacen-4-yl)carbamoyl)-1-iso-propylpiperidine-4-sulfonamide, potassium salt]",1000 to 10000
22,"CN1CCCC(S(=O)(=O)NC(=O)Nc2c3c(cc4c2CCC4)CCC3)CC1 (stereo not shown) [Example 195, N-((1,2,3,5,6,7-hexahydro-s-indacen-4-yl)carbamoyl)-1-methylazepane-4-sulfonamide, potassium salt]",< 1000
23,"C/C(CN1CC(S(=O)(=O)NC(=O)Nc2c3c(cc4c2CCC4)CCC3)C1)=N/O [Example 128, N-((1,2,3,5,6,7-Hexahydro-s-indacen-4-yl)carbamoyl)-1-(2-(hydroxyimino)propyl)azetidine-3-sulfonamide, potassium salt]",1000 to 10000
24,"O=C(Nc1c2c(cc3c1CCC3)CCC2)NS(=O)(=O)C1CCN(C(=O)C2CCC2)CC1 [Example 25, 1-(Cyclobutanecarbonyl)-N-((1,2,3,5,6,7-hexahydro-s-indacen-4-yl)carbamoyl)piperidine-4-sulfonamide, potassium salt]",1000 to 10000
25,"CCN1CC(S(=O)(=O)NC(=O)Nc2c(-c3ccnc(OC)c3)cc(F)cc2C(C)C)C1 [Example 166, 1-Ethyl-N-((4-fluoro-2-isopropyl-6-(2-methoxypyridin-4-yl)phenyl)carbamoyl)azetidine-3-sulfonamide]",1000 to 10000
